Results: patent publication US8020343B2, “Enhanced shelf life and on seed stabilization of liquid bacterium inoculants” (Becker Underwood Inc., priority 2004, dated 2011)

Legend:
[1] = test system: Rhizobium leguminosarum; assay: Sugar/sugar alcohol study: bacteria counts on pea seeds; assay type: cell-based; settings: 15° C., sorbitol vs sucrose vs trehalose
Experimental: Partially desiccated inoculant products were prepared by first growing Rhizobium leguminosarum in a Rhizobium leguminosarum bv. viceae culture medium. Two different culture mediums were used, 1×R1 and 1.5×R1, which are pea and lentil fermentation medium. The 1.5×R1 has 50% more media components than 1×R1. After 3 days culture growth, a sugar or a sugar alcohol was aseptically added to the culture. The amount of sugar or sugar alcohol added to the culture is shown in final concentration (weight/volume) in Table 9 below. The culture was then allowed a 2 day conditioning phase during which the culture continued to grow thereby creating the partially desiccated inoculant product. The partially desiccated inoculant product was then applied to pea seeds at a rate of 3.1 L inoculant product/1136 kg seed. The seeds were then mixed in a bag by shaking to evenly distribute the inoculant product on the seeds. The seeds were then stored at 15° C.
The bacteria counts were performed in a similar manner as the previous examples. That is, 50 seeds were put in 100 ml of phosphate buffer in a dilution bottle. The bottle was shaken for 5 minutes. 10 fold serial dilutions were made and 0.1 ml of proper dilution was spread onto nutrient medium plates. The viable bacteria cells on seed were calculated based on the colony numbers on the plates.

[2] = test system: B. japonicum strain 532C; assay: Sorbitol versus trehalose: on-seed rhizobial viability on soybean seed; assay type: cell-based; settings: trehalose 30% w/v vs sorbitol 20% w/v; seeds at 18-20° C., time zero and 7 days, FIG. 13
Experimental: An experiment was run to determine whether sorbitol or trehalose is better suited for application to soybean seeds with B japonicum. The following steps were performed: • 1. B. japonicum strain 532C was grown for 5 days in 1.5×Bj2 (a soybean fermentation medium) at 30° C. and 165 rpm. • 2. Either sorbitol (20% w/v) or trehalose (30% w/v) was added to the culture, and the cultures were maintained for 5 days at 30° C., 165 rpm. • 3. 2.7 ml/kg of either sorbitol or trehalose amended culture was applied to soybean seed. Seeds were evenly coated. • 4. Seeds were stored at 18-20° C. • 5. On-seed rhizobial viability was monitored at time zero and after 7 days

| Structure (SMILES) | extension of on-seed shelf life of Rhizobium leguminosarum, ranking of sugars/sugar alcohols tested [1] | suitability for application to B japonicum on soybean seeds (on-seed rhizobial viability) [2] |
| --- | --- | --- |
| OC[C@@H](O)[C@@H](O)[C@H](O)[C@@H](O)CO [sorbitol] | top performing | – |
| OC[C@H]1O[C@H](O[C@H]2O[C@H](CO)[C@@H](O)[C@H](O)[C@H]2O)[C@H](O)[C@@H](O)[C@@H]1O [trehalose] | – | better suited than sorbitol |
